Results reported in patent US20240279236A1, “COMPOUNDS AND METHODS OF TREATING TUBERCULOSIS” (Fimbrion Therapeutics, Inc., priority 2021, published 2024).

Test system: WT Mtb Erdman strain
Assay: Microplate Alamar Blue Assay (MABA), Mtb growth inhibition
Format: cell-based, Mycobacterium tuberculosis
Details: Mycobacterium tuberculosis, ERDMAN, 168 h, Middlebrook 7H9 media, 7 days at 37° C. in 5% CO2

| SMILES | IC50 |
| --- | --- |
| Cc1cc2c(NCCCc3ccccc3)nc(-n3ccnn3)nc2s1 [Example 586, 6-methyl-N-(3-phenylpropyl)-2-(1H-1,2,3-triazol-1-yl)thieno[2,3-d]pyrimidin-4-amine] | 200 nM |
| Cc1cc2c(NCCCc3ccc(OC(F)(F)F)cc3)nc(-n3ccnn3)nc2s1 [Example 587, 6-methyl-2-(1H-1,2,3-triazol-1-yl)-N-(3-(4-(trifluoromethoxy)phenyl)propyl)thieno[2,3-d]pyrimidin-4-amine] | 1100 nM |
| CCc1nc(NCCCc2ccccc2O)c2cc(C)sc2n1 [Example 588, 2-(3-((2-ethyl-6-methylthieno[2,3-d]pyrimidin-4-yl)amino)propyl)phenol] | 4400 nM |
| Cc1cc2c(NCCCc3ccccc3O)nc(C(F)(F)F)nc2s1 [Example 589, 2-(3-((6-methyl-2-(trifluoromethyl)thieno[2,3-d]pyrimidin-4-yl)amino)propyl)phenol] | > 10000 nM |
| CCc1nc(NCCCc2ccc(Nc3ccccc3)cc2)c2cc(C)sc2n1 [Example 590, 2-ethyl-6-methyl-N-(3-(4-(phenylamino)phenyl)propyl)thieno[2,3-d]pyrimidin-4-amine] | 530 nM |
| CCc1nc(NCCCc2ccc(N=[N+]=[N-])cc2)c2cc(C)sc2n1 [Example 591, N-(3-(4-azidophenyl)propyl)-2-ethyl-6-methylthieno[2,3-d]pyrimidin-4-amine] | > 10000 nM |
| Cc1cc2c(NCCCc3ccc(N=[N+]=[N-])cc3)nc(C(F)(F)F)nc2s1 [Example 592, N-(3-(4-azidophenyl)propyl)-6-methyl-2-(trifluoromethyl)thieno[2,3-d]pyrimidin-4-amine] | 4400 nM |
| CCc1nc(NCCCc2ccc(-n3ccnn3)cc2)c2cc(C)sc2n1 [Example 593, N-(3-(4-(1H-1,2,3-triazol-1-yl)phenyl)propyl)-2-ethyl-6-methylthieno[2,3-d]pyrimidin-4-amine] | 530 nM |
| Cc1cc2c(NCCCc3ccc(-c4ccc[nH]4)cc3)nc(-c3ccoc3)nc2s1 [Example 594, 2-(furan-3-yl)-6-methyl-N-(3-[4-(1H-pyrrol-2-yl)phenyl]propyl)thieno[2,3-d]pyrimidin-4-amine] | 240 nM |
| Cc1cc2c(NCCCc3ccc(-c4ccc(OC(F)(F)F)cc4)cc3)nc(OCC(F)(F)F)nc2s1 [Example 596, 6-methyl-2-(2,2,2-trifluoroethoxy)-N-(3-(4′-(trifluoromethoxy)-[1,1′-biphenyl]-4-yl)propyl)thieno[2,3-d]pyrimidin-4-amine] | 29 nM |
| Cc1cc2c(NCCCc3ccc(-c4ccc(OC(F)(F)F)cc4)cc3)nc(SC(F)(F)F)nc2s1 [Example 597, 6-methyl-N-(3-(4′-(trifluoromethoxy)-[1,1′-biphenyl]-4-yl)propyl)-2-((trifluoromethyl)thio)thieno[2,3-d]pyrimidin-4-amine] | 6300 nM |
| Cc1cc2c(NCCCc3ccc(-c4ccc(OC(F)(F)F)cc4)cc3)nc(Br)nc2s1 [Example 598, 2-bromo-6-methyl-N-(3-(4′-(trifluoromethoxy)-[1,1′-biphenyl]-4-yl)propyl)thieno[2,3-d]pyrimidin-4-amine] | 81 nM |
| CC(=O)Nc1nc(NCCCc2ccc(-c3ccc(OC(F)(F)F)cc3)cc2)c2cc(C)sc2n1 [Example 599, N-(6-methyl-4-((3-(4′-(trifluoromethoxy)-[1,1′-biphenyl]-4-yl)propyl)amino)thieno[2,3-d]pyrimidin-2-yl)acetamide] | > 370 nM |
| Cc1cc2c(NCCCc3ccc(-c4ccc(C(=O)O)cc4)cc3)nc(-c3ccoc3)nc2s1 [Example 601, 4′-(3-((2-(furan-3-yl)-6-methylthieno[2,3-d]pyrimidin-4-yl)amino)propyl)-[1,1′-biphenyl]-4-carboxylic acid] | 530 nM |
| Cc1cc2c(NCCCc3ccc(-c4ccc(OC(F)(F)F)cc4)cc3)nc(-n3ccnn3)nc2s1 [Example 602, 6-methyl-2-(1H-1,2,3-triazol-1-yl)-N-(3-(4′-(trifluoromethoxy)-[1,1′-biphenyl]-4-yl)propyl)thieno[2,3-d]pyrimidin-4-amine] | 190 nM |
| Cc1cc2c(NCCCc3ccc(-n4cccc4)cc3)nc(-c3ccoc3)nc2s1 [Example 604, 2-(furan-3-yl)-6-methyl-N-(3-[4-(1H-pyrrol-1-yl)phenyl]propyl)thieno[2,3-d]pyrimidin-4-amine] | 28 nM |
| Cc1cc2c(NCCCc3ccc(-c4ccc(OC(F)(F)F)cc4)cc3)nc(C#N)nc2s1 [Example 605, 6-methyl-4-((3-[4′-(trifluoromethoxy)-[1,1′-biphenyl]-4-yl]propyl)amino)thieno[2,3-d]pyrimidine-2-carbonitrile] | > 10000 nM |
